For orientation: T/C means the result in the treated group divided by that in the control group, in per cent.

Four compounds from ChEMBL document CHEMBL1125304, “Synthesis and antitumor activity of 3- and 5-hydroxy-4-methylpyridine-2-carboxaldehyde thiosemicarbazones” (1992) can be followed below.

Structures are written as SMILES.

For test [1], the system named is Mus musculus. Kind of test: Ratio of the survival time of treated to control mice bearing the L1210 leukemia after intraperitoneal administration of the 40 mg/kg compound in the DMSO solution form.
Test [2] has as its system Mus musculus. Kind of test: Ratio of the survival time of treated to control mice bearing the L1210 leukemia after intraperitoneal administration of the 40 mg/kg compound in the suspension form.
The test system of test [3] is Mus musculus. As to the kind of experiment: Average weight change of mice bearing the L1210 leukemia (24 hr after tumor implantation) after intraperitoneal administration of the 40 mg/kg compound in the suspension form.
In test [4] the test system is Mus musculus. As to the kind of experiment: Average weight change of mice bearing the L1210 leukemia (24 hr after tumor implantation) after intraperitoneal administration of the 40 mg/kg compound in the DMSO solution form.
Test [5] relates to Mus musculus. As to the kind of experiment: Average weight change of mice bearing the L1210 leukemia (24 hr after tumor implantation) after intraperitoneal administration of the 50 mg/kg compound in the suspension form.
Test [6] relates to Mus musculus. Kind of test: Ratio of the survival time of treated to control mice bearing the L1210 leukemia after intraperitoneal administration of the 50 mg/kg compound in the suspension form.

On to `Cc1cc(/C=N/N=C(/N)S)ncc1O`, for which the T/C with Mus musculus [1] was found to be 138%; in the test on Mus musculus [2] it was 186%. The figures for the Average weight change in the test with Mus musculus [3] and in the test with Mus musculus [4] were -3.4% and -7.4%, respectively.
In the case of `N/C(S)=N/N=C/c1ncccc1O`, the T/C with Mus musculus [1] is 114%. The Average weight change in the test on Mus musculus [4] is on record as 1.5%.
In the case of `Cc1ccnc(/C=N/N=C(/N)S)c1O`, the T/C was found to be 135% with Mus musculus [1] and 168% with Mus musculus [6]. Further, the Average weight change in the test on Mus musculus [5] worked out at 0.9%; in the test on Mus musculus [4], 0.5%.
Turning to `N/C(S)=N/N=C/c1ccc(O)cn1`, in the test on Mus musculus [1], the T/C was determined as 132%. Also, in the test on Mus musculus [4], the Average weight change is on record as 1.8%.
